These results are taken from patent US20090240048A1, “Alpha-crystalline form of substituted selenoxanthenes and the method of its preparation” (MEDBIOPHARM LTD, priority 2008, published 2009).

One data set can be described thus: Storage life. Type of data set: physicochemical.
Data set [1] in a line: Angle of repose (flowability) of powder. The data set is classed as physicochemical.

Regarding `c1ccc(C2C3=C(CCCC3)[Se]C3=C2CCCC3)cc1` [9-phenyl-symmetrical-octahydroselenoxanthene], the Storage life in the data set “Storage life” is 6 months. The same molecule yielded an Angle of repose in data set [1] of 52°.
